Reference: PubChem BioAssay (NCI)
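A five-concentration, 48-hour dose response in 96-well plates underlies each endpoint, interpolated linearly between surrounding concentrations. Abbreviation: GI50, concentration required for 50% inhibition of growth. TGI: total growth inhibition.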

Legend:
Test in all cases: NCI-60 cell line screen, 48 h
[1] = tested on: HS 578T breast
[2] = tested on: K-562 leukemia
[3] = tested on: MDA-MB-231 breast
[4] = tested on: OVCAR-5 ovarian
[5] = tested on: OVCAR-8 ovarian
[6] = tested on: MCF7 breast
[7] = tested on: MOLT-4 leukemia
[8] = tested on: U251 CNS
[9] = tested on: HOP-92 NSCLC
[10] = tested on: T-47D breast

SMILES	TGI [1]	TGI [2]	TGI [3]	TGI [4]	TGI [5]	TGI [6]	TGI [7]	TGI [8]	TGI [9]	TGI [10]	GI50 [8]	GI50 [1]	GI50 [2]	GI50 [9]	GI50 [3]	GI50 [5]	GI50 [6]	GI50 [7]	GI50 [10]	GI50 [4]
Cc1c2ccccc2cc2cccc[n+]12	73 µM	> 100 µM	> 100 µM	> 100 µM	> 100 µM	> 100 µM	> 100 µM													
COc1cc2cc[n+](C)c(Cc3ccc(Oc4cc(Cc5c6cc(OC)c(OC)cc6cc[n+]5C)ccc4OC)cc3)c2cc1OC	> 100 µM	> 100 µM	> 100 µM	> 100 µM	> 100 µM	> 100 µM	> 100 µM	> 100 µM	> 100 µM	> 100 µM										
Oc1ccc(Cl)cc1C1=Nn2c(COc3ccc4c(c3)CCCC4)nnc2SC1	30 µM	49.4 µM	34.2 µM	34.6 µM	30.9 µM	32.5 µM	43.8 µM	35.3 µM	18.1 µM	34.3 µM										
CC(NC(=O)c1ccc(OP(=O)(OCc2ccc([N+](=O)[O-])o2)N(C)CCCCCl)cc1)c1ccc(OCC2CCCCC2)c(C(N)=O)c1 (stereo unspecified)	> 41.6 µM	18 µM	9.66 µM	> 47.6 µM	> 74.4 µM	17.1 µM	6.89 µM	> 32.3 µM	4.75 µM	> 20.1 µM										
COc1ccc(-n2nc(C(=O)c3ccccc3)c3nn4c(=O)cc(-c5ccccc5)nc4nc32)cc1	> 100 µM	> 100 µM	> 100 µM		> 100 µM	> 100 µM	> 100 µM	> 100 µM	> 100 µM	> 100 µM	39200 nM	69.9 µM	40500 nM	37.4 µM	28.7 µM	40.1 µM	30.7 µM	34.8 µM	32.4 µM	
CN(CCN1C(=O)c2cccc3cccc(c23)C1=O)CCN1C(=O)c2cccc3cccc(c23)C1=O	> 100 µM	> 100 µM	33.6 µM	> 100 µM	19.2 µM	> 100 µM	> 100 µM	24.7 µM		10.2 µM										
C#C[C@]1(O)[C@@H](CO)O[C@@H](n2ccc(=O)[nH]c2=O)[C@@H]1O	> 23.5 µM	> 100 µM	3.77 µM	> 100 µM	> 100 µM	> 100 µM		> 100 µM		1.9 µM										
O=C1/C(=C/c2ccc([N+](=O)[O-])cc2)Sc2scc(-c3cccc([N+](=O)[O-])c3)[n+]21	48.1 µM	8.16 µM	16.5 µM	24.8 µM	> 54.9 µM	> 38.3 µM	> 20.1 µM	25.6 µM	13.8 µM	24.3 µM										
C=C(CN(C)C)C(=O)c1ccccc1Cl		> 75.4 µM		> 60.4 µM	45.2 µM		> 75.2 µM	98.4 µM	31.1 µM											
OC1CCSc2ccccc21 (stereo unspecified)		> 100 µM		> 100 µM	> 100 µM		> 100 µM	> 100 µM												
COc1ccc2c3c([nH]c2c1)[C@H](C=C(C)C)N1C(=O)[C@@H]2CCCN2C(=O)[C@@H]1C3	> 100 µM	> 100 µM	> 100 µM	> 100 µM	> 100 µM	> 100 µM	> 100 µM	> 100 µM	> 100 µM	> 100 µM										
CC(C)C(=O)CC(c1ccc(Br)cc1)N1N=C(C(C)C)CC1c1ccc(Br)cc1 (stereo unspecified)		> 100 µM		> 100 µM	> 100 µM		> 100 µM	> 100 µM	> 100 µM											
CN(CCc1ccccn1)c1ccc2c(c1)Cc1ccccc1-2	9.92 µM	> 100 µM	21.9 µM	> 100 µM	77.8 µM	> 100 µM	> 100 µM	22.6 µM	31.9 µM	92.5 µM										
Fc1c(F)c(F)c(CSc2nc3ccccc3[nH]2)c(F)c1F	> 100 µM	> 100 µM	> 100 µM	> 100 µM	> 100 µM	> 100 µM	> 100 µM	> 100 µM	> 100 µM	> 100 µM										
CC1(C)CC(C(=O)OCCCCCCCCCCC[P+](c2ccccc2)(c2ccccc2)c2ccccc2)C(C)(C)N1O (stereo unspecified)	1.84 µM	0.784 µM	0.849 µM	1.38 µM	1.72 µM	0.836 µM		1.11 µM			59.6 nM	0.354 µM	85.2 nM		0.252 µM	0.319 µM	0.187 µM			386 nM
CC(C)(C)COS(=O)OCC(C)(C)C	> 100 µM	> 100 µM	> 100 µM	> 100 µM	> 100 µM	> 100 µM	> 100 µM	> 100 µM	> 100 µM	> 100 µM										
O=C1CNc2cc(N3CCCCC3)ccc2N1	> 100 µM	> 100 µM		> 100 µM	> 100 µM	> 100 µM	> 100 µM	> 100 µM	> 100 µM	> 100 µM										
NC(N)=N/N=C/c1c(-c2cccs2)nc2n1CCS2	77.4 µM	71.8 µM	33.4 µM		> 100 µM	35.1 µM	28.5 µM	30.1 µM		37.3 µM	16600 nM	18.8 µM	27900 nM		13.7 µM	46.5 µM	17.6 µM	13.9 µM	17.5 µM	
Cc1ccc(S(=O)(=O)Nc2cc(=O)[nH]c3c2CCC3)cc1	> 100 µM	> 100 µM	> 100 µM	> 100 µM	> 100 µM	> 100 µM	> 100 µM	> 100 µM	> 100 µM	> 100 µM										
CS(=O)(=O)Nc1cccc(-c2ccc3ncnc(Nc4cncc(Cl)c4)c3c2)c1	6.41 µM	> 100 µM		> 100 µM	> 100 µM		7.61 µM	4.18 µM	26.8 µM	6.36 µM	1640 nM	1.35 µM	2590 nM	1.83 µM		3.22 µM		2.38 µM	0.726 µM	2050 nM
CC12OC(C(=O)C13CCC3)C1C(=O)c3c(O)ccc(O)c3C(=O)C12 (stereo unspecified)	17.6 µM	10.3 µM	7.47 µM	4.29 µM	18.1 µM	6.2 µM		> 22.8 µM		3.2 µM	2470 nM	4.38 µM	1270 nM		2.41 µM	7.04 µM	1.49 µM	0.123 µM	0.948 µM	2140 nM
